Source: patent US20250257071A9, “TRICYCLIC COMPOUND, METHOD FOR PREPARING SAME, AND USE THEREOF” (Sichuan Kelun-Biotech Biopharmaceutical Co., Ltd., priority 2021, published 2025)

Legend:
[1] = target: human TLR8 (Homo sapiens (Human), UniProt Q9NR97); experiment: Agonistic activity of compounds on HEK-Blue hTLR8 cells (QUANTI-Blue reporter, OD620); assay type: cell-based
Experimental: • 1. HEK-Blue hTLR8 cells (Invivogen) were cultured in DMEM medium (Hyclone) containing 10% FBS heat-inactivated fetal bovine serum (Corning). On the day of detection, the cell state was observed under a microscope, the cells were collected and resuspended, and the cell concentration was adjusted after counting, 50 μL per well, the total amount of cells was 2×10^4, and the cells were inoculated in a 96-well plate. • 2. After the cells adhered to the wall overnight, 50 μL of the test compound at different concentrations was added to the well plate, so that the final concentrations were 100 μM, 25 μM, 6.25 μM, 1.56 μM, 0.39 μM, 0.10 μM, 0.02 μM, 0.006 μM, 0 μM, or 100 μM, 33.3 μM, 11.11 μM, 3.70 μM, 1.23 μM, 0.41 μM, 0.14 μM, 0.05 μM, 0 μM, and the final concentration of DMSO was 1%. The compound was incubated with the cells in a 37° C., 5% CO2 incubator for 20 hours. • 3. After the incubation, observation was performed under microscope to determine the maximum signal well, the state of the cells with the highest and lowest concentrations of the compound, and whether the compound will crystalize at high concentration. 10 μL of cell culture supernatant was transferred to a new 96-well transparent plate, added with 90 μL of QUANTI-Blue (Invivogen) detection reagent to each well, incubated at 37° C. for 3 hours, and OD620 was read with a multifunctional microplate reader (BMG LABTECH). • 4. EC50 was calculated by fitting with Graphpad Prism software log(agonist) vs. Response—Variable slope, and Emax was the OD620 at which the activation effect of the test compound reached the maximum.

[2] = target: human TLR7 (Homo sapiens (Human), UniProt Q9NYK1); experiment: Agonistic activity of compounds on HEK-Blue hTLR7 cells (QUANTI-Blue reporter, OD620); assay type: cell-based
Chain of human TLR7 (Q9NYK1 27-1049): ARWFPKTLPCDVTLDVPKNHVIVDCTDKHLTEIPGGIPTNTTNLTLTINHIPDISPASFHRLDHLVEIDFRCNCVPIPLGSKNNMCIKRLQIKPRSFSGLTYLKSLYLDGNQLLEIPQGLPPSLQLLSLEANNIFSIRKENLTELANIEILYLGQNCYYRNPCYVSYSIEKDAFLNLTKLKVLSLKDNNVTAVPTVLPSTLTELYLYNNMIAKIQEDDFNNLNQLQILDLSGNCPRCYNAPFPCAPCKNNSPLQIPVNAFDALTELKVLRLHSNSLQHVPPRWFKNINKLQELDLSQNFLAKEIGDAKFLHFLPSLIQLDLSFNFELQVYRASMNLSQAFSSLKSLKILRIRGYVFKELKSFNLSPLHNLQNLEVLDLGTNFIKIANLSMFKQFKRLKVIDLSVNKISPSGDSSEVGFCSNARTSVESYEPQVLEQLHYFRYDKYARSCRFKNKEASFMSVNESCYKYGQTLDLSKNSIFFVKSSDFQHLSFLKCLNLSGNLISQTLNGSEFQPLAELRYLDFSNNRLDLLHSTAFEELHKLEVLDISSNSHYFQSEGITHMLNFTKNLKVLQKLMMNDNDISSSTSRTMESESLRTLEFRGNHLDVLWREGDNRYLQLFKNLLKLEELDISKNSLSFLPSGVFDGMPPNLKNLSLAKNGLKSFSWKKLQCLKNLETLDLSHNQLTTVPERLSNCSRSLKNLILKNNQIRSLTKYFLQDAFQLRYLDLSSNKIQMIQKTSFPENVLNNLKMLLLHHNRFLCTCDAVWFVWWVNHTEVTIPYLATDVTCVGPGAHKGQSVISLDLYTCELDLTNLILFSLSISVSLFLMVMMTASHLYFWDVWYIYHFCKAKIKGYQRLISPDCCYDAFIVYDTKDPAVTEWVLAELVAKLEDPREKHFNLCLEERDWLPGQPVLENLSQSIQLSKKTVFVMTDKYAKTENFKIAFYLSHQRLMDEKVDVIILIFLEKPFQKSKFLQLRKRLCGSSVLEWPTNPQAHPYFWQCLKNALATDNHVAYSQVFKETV
Experimental: • 1. HEK-Blue hTLR7 cells (Invivogen) were cultured in DMEM medium (Hyclone) containing 10% FBS heat-inactivated fetal bovine serum (Corning). On the day of detection, the cell state was observed under a microscope, the cells were collected and resuspended, and the cell concentration was adjusted after counting, 50 μL per well, the total amount of cells was 2×10^4, and the cells were inoculated in a 96-well plate. • 2. After the cells adhered to the wall overnight, 50 μL of the test compound at different concentrations was added into the well plate, so that the final concentrations were 100 μM, 33.3 μM, 11.11 μM, 3.70 μM, 1.23 μM, 0.41 μM, 0.14 μM, 0.05 μM, 0 μM, and the final concentration of DMSO was 1%. The compound was incubated with the cells in a 37° C., 5% CO2 incubator for 20 h. • 3. After the incubation, observation under microscope was performed to determine the maximum signal well, the states of the cells with the highest and lowest concentrations of the compound, and whether the compound will crystalize at high concentration. 10 μL of cell culture supermatant was taken and transferred to a new 96-well transparent plate, 90 μL of QUANTI-Blue (Invivogen) detection reagent was added to each well, and incubated at 37° C. for 3 h, and OD620 was read with a multifunctional microplate reader (BMG LABTECH). • 4. EC50 was calculated by fitting with Graphpad Prism software log(agonist) vs. response—Variable slope, and Emax was the (D620 at which the activation effect of the test compound reached the maximum.

[3] = OD620 at maximum activation effect

Chain of human TLR8 (Q9NR97 27-1041): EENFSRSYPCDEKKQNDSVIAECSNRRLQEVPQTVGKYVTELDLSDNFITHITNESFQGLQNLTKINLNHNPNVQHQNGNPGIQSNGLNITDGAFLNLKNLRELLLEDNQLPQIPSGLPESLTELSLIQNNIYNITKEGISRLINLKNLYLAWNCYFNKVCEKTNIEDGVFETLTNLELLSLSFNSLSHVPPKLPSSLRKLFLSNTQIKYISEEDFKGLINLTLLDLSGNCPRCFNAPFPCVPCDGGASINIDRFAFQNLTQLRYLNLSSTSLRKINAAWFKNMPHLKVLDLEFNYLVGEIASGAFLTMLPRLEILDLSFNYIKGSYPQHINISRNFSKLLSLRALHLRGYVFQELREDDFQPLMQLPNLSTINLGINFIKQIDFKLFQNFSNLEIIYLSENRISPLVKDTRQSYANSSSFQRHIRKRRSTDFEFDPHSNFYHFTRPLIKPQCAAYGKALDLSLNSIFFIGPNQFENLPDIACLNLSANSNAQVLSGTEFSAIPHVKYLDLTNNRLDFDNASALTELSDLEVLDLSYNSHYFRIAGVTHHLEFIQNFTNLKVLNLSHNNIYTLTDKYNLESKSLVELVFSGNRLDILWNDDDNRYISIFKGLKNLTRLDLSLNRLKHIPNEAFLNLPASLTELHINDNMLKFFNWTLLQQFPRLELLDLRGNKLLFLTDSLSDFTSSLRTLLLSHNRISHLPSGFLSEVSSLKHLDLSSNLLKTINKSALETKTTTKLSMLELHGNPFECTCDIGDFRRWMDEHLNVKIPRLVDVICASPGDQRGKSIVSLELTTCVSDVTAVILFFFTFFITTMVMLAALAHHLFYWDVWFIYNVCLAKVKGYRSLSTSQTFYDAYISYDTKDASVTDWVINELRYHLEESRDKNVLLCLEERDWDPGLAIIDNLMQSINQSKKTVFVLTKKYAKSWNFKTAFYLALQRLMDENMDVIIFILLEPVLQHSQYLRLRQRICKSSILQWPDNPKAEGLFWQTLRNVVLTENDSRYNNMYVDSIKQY

CCCCc1nc2c(N)nc3cc(C4CCNCC4)sc3c2n1CC1CCOCC1 [Compound 33, 2-butyl-7-(hexahydropyridin-4-yl)-1-(3,4,5,6-tetrahydro-2H-pyran-4-ylmethyl)thieno[3,2-b]imidazo[4,5-d]pyridine-4-amine]
activation effect on human TLR8 (in words) [1]: strong activation effect | Emax (OD620) [1, 3]: 0.67 OD620 | activation effect on human TLR7 (in words) [2]: strong activation effect | Emax (OD620) [2, 3]: 1.46 OD620
